One data set has as its target T1, COX-2 (Homo sapiens, UniProt P35354).
T1 construct: incubated at 37° C. for 24 hours to induce COX-2; from tissue; host or cells: heparinised human whole blood from healthy donors, stimulated with LPS
T1 sequence (P35354 18-604): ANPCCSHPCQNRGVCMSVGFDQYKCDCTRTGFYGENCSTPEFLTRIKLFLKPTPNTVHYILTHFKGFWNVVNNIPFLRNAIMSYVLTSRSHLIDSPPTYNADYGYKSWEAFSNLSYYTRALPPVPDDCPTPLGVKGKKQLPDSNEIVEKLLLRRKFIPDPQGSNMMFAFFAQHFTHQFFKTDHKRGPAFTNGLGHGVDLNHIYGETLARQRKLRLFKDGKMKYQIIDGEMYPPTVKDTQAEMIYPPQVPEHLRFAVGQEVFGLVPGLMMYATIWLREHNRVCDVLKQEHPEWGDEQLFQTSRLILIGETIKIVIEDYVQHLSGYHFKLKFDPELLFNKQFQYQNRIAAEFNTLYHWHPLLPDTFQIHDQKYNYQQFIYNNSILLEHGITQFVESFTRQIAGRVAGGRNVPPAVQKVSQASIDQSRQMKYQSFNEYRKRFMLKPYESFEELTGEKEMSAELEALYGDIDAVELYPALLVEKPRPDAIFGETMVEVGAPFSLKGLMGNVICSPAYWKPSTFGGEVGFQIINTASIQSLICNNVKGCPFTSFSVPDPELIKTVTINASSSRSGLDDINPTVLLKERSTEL
In words: Human whole blood assay, in vitro COX-2 assay (LPS-stimulated, PGE2 by EIA). The note with it: for selective inhibitory action on COX-2 activity: compared with loxoprofen (1), Table 12; for COX Selectivity COX-1/COX-2: ratio of IC50 COX-1 / IC50 COX-2, human whole blood. It counts as cell-based. As for the experimental part: Human Whole Blood Assay (In Vitro)
This test was carried out according to the method described in Inflamm. Res., 45: 68-74 (1996).
As blood donors, persons who were healthy on the day of collecting and had not taken NSAIDs for at least a week or more were selected.
Blood was collected in test tubes treated with heparin (Venoject II blood collection tubes, produced by TERUMO CORPORATION). To the test tubes, inflammatory stimulant lipopolysaccharide (LPS) [Sigma-Aldrich Japan Inc., #L2880 from E. coli 055:B5; diluted with phosphate buffered saline (PBS) at a final concentration of 100 μg/mL] was added. Aliquots of 500 μL were dispensed in the tubes, and 2 μL of a solution of a test compound (final concentration: 0.1 μM to 1000 μM) in a suitable solvent (DMSO or MilliQ water) was added to the tubes and incubated at 37° C. for 24 hours to induce COX-2.
After the incubation, the sample was centrifuged at 12,000×g for 5 minutes to separate blood serum. To remove protein from blood, 100 μL of obtained blood serum was added to 400 μL of ethanol, and the mixture was centrifuged again at 12,000×g for 5 minutes. PGE2 in the supernatant was quantitatively determined using an enzyme immunoassay (EIA) kit [Cayman (Ann, Arbor, Mich., USA) #514040] according to the attached protocol.

In data set [1] the test system is Male Wister rats. The data set is described as follows: Gastric ulceration after oral administration (lesion index). The note with it: rats fasted 18 hours, stomach excised after 8 hours, FIG. 1, versus loxoprofen (1). The data set is classed as in vivo, rat. As for the experimental part: This test was carried out according to the method described in Biochem. Pharmacol., 67; 575-85 (2004).
Male Wister rats (weight: 180 to 200 g) were fasted for 18 hours, and a test compound was orally administered to the rats. After 8 hours, the stomach was excised and the area of ulcers found in the stomach was measured. The total area of all ulcers was represented as the lesion index.

Data set [2] has as its system Male Wister rats. The data set is described as follows: Effect on carrageenin-induced edema. The settings on record: oral, 1 hour before carrageenin, 3 and 6 hours, FIG. 2. The data set is classed as in vivo, rat. As for the experimental part:
B: Effect on Carrageenin-Induced Edema
This test was carried out according to the method described in Br. J. Pharmacol., 151; 285-91 (2007).
Male Wister rats (weight: 180 to 200 g) were fasted for 18 hours, and a test compound was orally administered to the rats. After 1 hour, 100 μL of 1% carrageenin (dissolved in physiological saline) was subcutaneously injected into the left footpad to induce edema.
Before carrageenin administration, and three hours and six hours after carrageenin administration, the leg volume was measured using a plethysmometer.
The edema inhibition rate is calculated on the basis of the following equation. Inhibition rate(%)=100−(edema volume when a compound was administrated/edema volume when a vehicle was administrated)×100.
A general note: The carrageenan paw model is a standard test of acute inflammation.

For data set [3] the following is noted: earlier work of the inventors, Patent Literature 1; cited from earlier work.
For data set [4] the following is noted: compared with loxoprofen; earlier work, Patent Literature 1; cited from earlier work.

Consider six compounds from patent US9221786B2, “2-fluorophenyl propionic acid derivatives” (LTT BIO-PHARMA CO., LTD., priority 2011, dated 2015).

`CC(C(=O)O)c1ccc(OC2CCCC2)cc1F` (racemic) [Compound 14, 2-[4-(cyclopentyloxy)-2-fluorophenyl]-propionic acid]: on COX-2, the “selective inhibitory action on COX-2 activity” value is “weaker selective inhibitory action on COX-2 activity than loxoprofen (1)” and the “COX Selectivity COX-1/COX-2” value was determined as 0.1. The “gastric ulceration / gastric damage” value with Male Wister rats [1] is reported as “gastric ulceration was significantly reduced”. Further, in the data set on Male Wister rats [2], the “anti-inflammatory effect (edema inhibition)” value is given as “excellent anti-inflammatory effect”.

Consider `CC(C(=O)O)c1ccc(Cc2ccoc2)cc1F` (racemic) [Compound 22a, 2-[2-fluoro-4-(furan-3-ylmethyl)-phenyl]propionic acid], for which the “COX Selectivity COX-1/COX-2” value at COX-2 was determined as 7.6. Further, in the data set on Male Wister rats [1], the “gastric ulceration / gastric damage” value is “significantly reducing gastric damage”. Further, the “anti-inflammatory effect (edema inhibition)” value with Male Wister rats [2] is “same level of anti-inflammatory effect as loxoprofen (1)”.

`CC(C(=O)O)c1ccc(CC2CCCC2=O)cc1F` (stereo not drawn) [Compound 2, 2-fluoroloxoprofen]: the ulceration action result in data set [3] is given as “low ulceration action”. The “COX Selectivity COX-1/COX-2” value on COX-2 was 1.7. Moreover, the anti-inflammatory effect result in data set [4] is on record as “same anti-inflammatory effect as loxoprofen”.

`CC(C(=O)O)c1ccc(CC2CCCC2=O)cc1` (stereo not drawn) [Compound 1, Loxoprofen, reference compound]: the “COX Selectivity COX-1/COX-2” value at COX-2 stood at 2.3.

Regarding `CC(C(=O)O)c1ccc(NC2CCCC2)cc1F` (stereo not drawn) [Compound 11a, 2-[4-(cyclopentylamino)-2-fluoro-phenyl]propionic acid], on COX-2, the “selective inhibitory action on COX-2 activity” value was “weaker selective inhibitory action on COX-2 activity than loxoprofen (1)” and the “COX Selectivity COX-1/COX-2” value stood at 0.7. In addition, the “gastric ulceration / gastric damage” value with Male Wister rats [1] is reported as “gastric ulceration was significantly reduced”. The “anti-inflammatory effect (edema inhibition)” value with Male Wister rats [2] is reported as “excellent anti-inflammatory effect”.

As for `CC(C(=O)O)c1ccc(Cc2ccco2)cc1F` (stereo not drawn) [Compound 21a, 2-[2-fluoro-4-(furan-2-ylmethyl)-phenyl]propionic acid], the “COX Selectivity COX-1/COX-2” value at COX-2 is recorded as 5.3. Moreover, in the data set with Male Wister rats [1], the “gastric ulceration / gastric damage” value is “significantly reducing gastric damage”. Besides, in the data set with Male Wister rats [2], the “anti-inflammatory effect (edema inhibition)” value was “same level of anti-inflammatory effect as loxoprofen (1)”.
